Data on eleven molecules can be found in US9591855B2, “Diindol-3-ylmethanes as potent non-toxic antifouling compounds” (Hong Kong University of Science and Technology, priority 2014, dated 2017).

Data set [1] is described as follows: Larval settlement bioassay, bryozoan larvae. The class given is in vivo, Bugula neritina. As for the experimental part:
(§1) Adult colonies of B. neritina were collected from the floating rafts at a fish farm in Yung SHU O, Hong Kong (22° 24′ N., 114° 21′ E.) and maintained in flow-through sweater for <7 days before use. The larvae were released under certain conditions described in Maki et al. (1989). Under the inducement of a bright artificial light for 20-30 minutes, the adult B. neritina placed in glass tank filled with 0.45 μm filtered seawater released their larvae, which were quickly able to attach and metamorphose. A good number of actively swimming larvae were obtained and immediately used for the anti-larval bioassay.
(§2) There were three replicate wells per solution.

For data set [2], the system named is Bugula neritina larvae. The data set can be described thus: Larval settlement bioassay, bryozoan larvae. Conditions: Bugula neritina, 48 h, read-out: EC50 (concentration in which 50% of larval population was prevented from settling). The class given is in vivo. How it is done: as §1, §2
Data set [3] relates to cyprids of Amphibalanus amphitrite. The data set can be described thus: Recovery (reversibility) bioassay on cyprids. The class given is in vivo. As for the experimental part: Cyprids were firstly exposed to the concentrations of DIM (1) (25.39 μM) and DIM-Ph-4-OH (8) (73.93 μM) that inhibited 100% of cyprid settlement of Amphibalanus amphitrite. After 24 hr of exposure, the cyprids were transferred to fresh seawater (FSW) and kept in incubator for 48 hr. In the control group, cyprids were kept in FSW without biocides during the course of the experiment. Values presented here were mean±SD (n=3) of the settled and unsettled (swimming) living larvae.
Reversibility tests—Cyprids were exposed and in the laboratory, recovery bioassay was designed and conducted to determine whether antifouling compounds 3,3′-diindolylmethane (DIM) and 4-hydroxyphenyl-3,3′-diindolylmethane (DIM-Ph-4-OH) had any detrimental effect on larvae. […]

Data set [4] relates to marine fouling organisms (biofoulers). The data set can be described thus: Field test of painted PVC panels at Sai Kung Pier. It counts as in vivo. From the text: Photographs show the surface condition of tested panels after submersion in sea water for 5 months. (A) Test panel No. 1, negative control panel coated with the basal paint; […] Asterisks above the bars indicate significant differences from the negative control in Tukey's test (p<0.05, One-way ANOVA). […] (2006) and Xu et al. (2010) with minor modifications. Briefly, the plates were coated with the mixed paints containing the basal ingredients as follows: 0.4, 0.8 and 1.2 g of DIM or Sea-Nine 211TM, 2.5 g of polyacrylic resin, 1.0 g of gum resin, 1.0 g of calcium carbonate, 2.0 g of titanium oxide, 0.2 g of bentonite, and 10.0 ml of xylene. After stirring the paint for 4-5 hr, it was immediately painted onto the sandblasted PVC panels. The painted plates were allowed to dry in dark. […] Calculation of Area Covered by Biofoulers-The condition of the painted surface of each panel was monitored and photographed weekly over a period of 5 months. All the images were analyzed with the ImageJ program (available as a public domain Java image processing software provided by NIH Image). […] Subsequently, the total area covered by biofoulers was calculated and was then divided by the total area of the panel surface to give rise to the percent coverage of biofoulers on each panel.

Data set [5] can be described thus: Preliminary hydrolysis experiment in natural seawater. The class given is physicochemical. Conditions: after 4 d incubation.
In a further data set the test system is primary mouse neurons. The data set can be described thus: Cytotoxicity to primary mouse neurons. It counts as cell-based.
The subject of data set [6] is Balanus amphitrite cypris larvae. Conditions: for antifouling activity in comparison with the butenolide: compared with butenolide; for EC50: read-out: EC50 (concentration in which 50% of larval population was inhibited to settle), 28° C., mean ± SD (n = 3); for EC50 / LC50: Balanus amphitrite cypris larvae, 48 h; for LC50: read-out: LC50 (concentration in which 50% of the test larvae population was killed); for antifouling activity against B. amphitrite larval settlement (in words): in vivo.
Protocol: (§3) Newly transformed cyprids were collected for the experiment.
(§4) The experiment for evaluating inhibitory effect of the related compounds on B. amphitrite and B. neritina larvae was conducted in 24-well polystyrene plates (Nunc, Naperville, Ill., Calif., USA). A stock solution of 50 mg ml^−1 of each compound was prepared in DMSO, diluted 1000 times with fresh seawater (FSW) to 50 μg ml^−1, and further diluted by a serial 2-fold dilution to obtain test solutions of seven concentrations ranging from 25 to 0.39 μg mL^−1. Sixteen to twenty larvae were then added to each well with one milliliter of the test solution. There were three replicate wells per solution. […] The 24-well plates were maintained in the dark for 48 h at 28° C. The number of settled larvae (attached and metamorphosed), swimming and dead larvae were counted under a dissecting microscope at 48 hr. The number of the settled larvae was expressed as a percentage of the total number of larvae per well. The mortality rate was determined as the percentage of the dead or missing larvae over the total number of larvae. Each bioassay experiment had three biological replicates and was repeated three times using three different batches of larvae.
(§5) The data were analyzed by one-way analysis of variance (ANOVA) to detect significant differences in larval settlement with regard to the concentration used (p<0.05).
(§6) In the anti-larval settlement assay, the EC50 for percentage of attachment and LC50 for larval mortality were calculated by using the software Probit. Differences in all tests between treatments and controls were determined by one-way ANOVA followed by Tukey's test.

Another data set in a line: in vivo. Conditions: Balanus (=Amphibalanus) amphitrite (barnacle, cypris larvae).
The subject of data set [7] is Balanus amphitrite cypris larvae. Conditions: positive control concentration, Li et al., 2013; cited from earlier work.
Data set [8] concerns Bugula neritina larvae. Conditions: positive control concentration, Li et al., 2013; cited from earlier work.
The mark [9] stands for this setting: other: immersion of larvae in test solution in seawater.
The mark [10] stands for this setting: Bugula neritina (bryozoan, in vivo, other: immersion of larvae in test solution in seawater), Bugula neritina larvae, 48 h, read-out: LC50 (concentration in which 50% of the test larvae population was killed).

Where two headings read alike, the source gives them in different places.
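Throughout, for antifouling activity against B. amphitrite larval settlement (in words): larvae held in 24-well plates with compound in seawater, dark, 48 h, settled larvae (attached plus metamorphosed) and dead or missing larvae counted microscopically as percent of total per well.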
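Throughout, for antifouling activity in comparison with the butenolide: larvae held in 24-well plates with compound in seawater, dark, 48 h, settled larvae (attached plus metamorphosed) and dead or missing larvae counted microscopically as percent of total per well.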
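Throughout, for inhibition of cyprid settlement: larvae held in 24-well plates with compound in seawater, dark, 48 h, settled larvae (attached plus metamorphosed) and dead or missing larvae counted microscopically as percent of total per well.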

Protocol for in vivo: as §3, §4, §5, §6

Consider `c1ccc2c(Cc3c[nH]c4ccccc34)c[nH]c2c1` [Compound 1, di(1H-indol-3-yl)methane], for which the LC50 at 48 h in data set [1] (Bugula neritina (bryozoan, larvae), in vivo) was more than 203 µM; in the data set “in vivo”, more than 203 µM. For the same molecule, the EC50 with Bugula neritina larvae [2] was found to be 2.54 µM; in [6], 3.27 ± 0.53 µM. The “treated cyprids that retained their ability of normal attachment and metamorphosis” value in data set [3] (24 hr exposure at 25.39 μM (50 μg mL^−1), then 48 hr in FSW) was determined as 93%. Moreover, the “biofouling on surface of treated PVC panels” value in [4] (10% and 15% (w/w) in paint, submerged in seawater 5 months) is reported as “few marine organisms observed”. Besides, the “period over which settlement of marine fouling organisms was deterred in field test” value in data set [4] (field test) is reported as not below 3 months. Moreover, the “degradation in natural seawater” value in data set [5] is listed as approximately 90%. In the data set on primary mouse neurons, the “cytotoxicity to primary mouse neurons” value is on record as “non-cytotoxic”. The “inhibition of cyprid settlement” value in data set [6] (25.39 μM) turned out to be 100%. Besides, the “antifouling activity in comparison with the butenolide” value (“antifouling activity in comparison” below) in [6] is “comparable antifouling activity”.

`CC(c1c[nH]c2ccccc12)c1c[nH]c2ccccc12` [Compound 2, vibrindole A]: in data set [6], the EC50 came out at 5.42 ± 0.19 µM and the LC50 is more than 192 µM.

Consider `OCC(O)C(c1c[nH]c2ccccc12)c1c[nH]c2ccccc12` (stereo not shown) [Compound 3, 3,3′-di-1H-indol-3-yl-1,2-propandiol], for which, in data set [6], the “antifouling activity against B. amphitrite larval settlement (in words)” value (from here on “antifouling activity … (in words)”) is listed as “least active compound”, the EC50 worked out at 18.6 ± 0.79 µM and the LC50 is more than 327 µM.

Regarding `c1ccc2c(C(c3c[nH]c4ccccc34)c3c[nH]c4ccccc34)c[nH]c2c1` [Compound 4, tri(1H-indol-3-yl)methane], in data set [6], the EC50 is 5.81 ± 0.53 µM. The LC50 at 48 h in the data set “in vivo” (setting [9]) was more than 138 µM.

As for `O=C(c1c[nH]c2ccccc12)C(c1c[nH]c2ccccc12)c1c[nH]c2ccccc12` [Compound 5, 1,2,2-tri(1H-indol-3-yl) ethanone], the EC50 in data set [6] was 4.19 ± 0.15 µM. For the same molecule, the LC50 at 48 h in “in vivo” (setting [9]) was more than 128 µM.

Turning to `c1ccc(C(c2c[nH]c3ccccc23)c2c[nH]c3ccccc23)cc1` [Compound 7, 3,3′-(phenylmethylene) bis-1H-indole], in [6], the “antifouling activity in comparison” value was “comparable antifouling activity”, the “antifouling activity … (in words)” value is recorded as “weaker anti-larval settlement activity than DIM-Ph-4-OH (8)” and the EC50 came to 3.57 ± 0.12 µM. In the data set “in vivo” (setting [9]), this molecule registered an LC50 at 48 h of more than 155 µM.

In the case of `Oc1ccc(C(c2c[nH]c3ccccc23)c2c[nH]c3ccccc23)cc1` [Compound 8, 4-(di(1H-indol-3-yl)methyl) phenol], the LC50 at 48 h (in data set [1] (setting [10]); in “in vivo” (setting [9])) was more than 148 µM throughout. For the same molecule, the EC50 in the data set on Bugula neritina larvae [2] stood at 1.25 µM; in data set [6] it was 1.86 ± 0.24 µM. Besides, the “treated cyprids that retained their ability of normal attachment and metamorphosis” value in data set [3] (Amphibalanus amphitrite, in vivo, 73.93 μM) was found to be 95%. Moreover, the “cytotoxicity to primary mouse neurons” value in the data set with primary mouse neurons is recorded as “non-cytotoxic”. Also, the “inhibition of cyprid settlement” value in data set [6] (73.93 μM) was found to be 100%. Also, the “antifouling activity in comparison” value in data set [6] is recorded as “comparable antifouling activity”. In addition, the “antifouling activity … (in words)” value in data set [6] is on record as “best antifoulant”.

As for `CC(=O)Oc1ccc(C(c2c[nH]c3ccccc23)c2c[nH]c3ccccc23)cc1` [Compound 9, 4-[di(1H-indol-3-yl)methyl]phenyl acetate], the LC50 at 48 h (in data set [1] (setting [10]); in the data set “in vivo” (setting [9])) was more than 132 µM each time. The EC50 with Bugula neritina larvae [2] came out at 4.5 ± 0.42 µM; in data set [6], 4.34 ± 0.32 µM. Also, in data set [6], the “antifouling activity … (in words)” value is on record as “not as high as that of DIM-Ph-4-OH (8)”.

For the molecule `c1ccc2[nH]ccc2c1` [Indole, indole, reference compound], the “antifouling activity … (in words)” value in data set [6] is recorded as “weak antifouling activity”. The values for the EC50 in data set [6] and in [6] (listed as indole) were 17.5 ± 0.6 µM and 17.5 µM, respectively. Further, in “in vivo”, the LC50 at 48 h turned out to be 85.4 µM.

Turning to `CCCCCCCCn1sc(Cl)c(Cl)c1=O` [Sea-Nine 211™, 4,5-dichloro-2-N-octyl-3(2H)-isothiazolone], the “degradation in natural seawater” value in data set [5] is recorded as “no obvious degradation”. In [7], the “EC50 value for B. amphitrite” value is 1.90 µg/mL. Further, the “EC50 value for B. neritina” value in the data set on Bugula neritina larvae [8] was 2.50 µg/mL.

On to arsindoline A [Compound 6], for which the EC50 in data set [6] is 4.64 ± 0.59 µM.
